Counter-ions that a name gives are not always drawn. Where only a bound is given, the exact number is not on record here.

The target in one test is EDG-1 (Homo sapiens, UniProt P21453). The experiment in a line: 35S-GTPγS binding assay, EDG1 (S1P1). The class given is biochemical. Set-up: expressed in transfected cells.
EDG-1, sequence (P21453 whole entry): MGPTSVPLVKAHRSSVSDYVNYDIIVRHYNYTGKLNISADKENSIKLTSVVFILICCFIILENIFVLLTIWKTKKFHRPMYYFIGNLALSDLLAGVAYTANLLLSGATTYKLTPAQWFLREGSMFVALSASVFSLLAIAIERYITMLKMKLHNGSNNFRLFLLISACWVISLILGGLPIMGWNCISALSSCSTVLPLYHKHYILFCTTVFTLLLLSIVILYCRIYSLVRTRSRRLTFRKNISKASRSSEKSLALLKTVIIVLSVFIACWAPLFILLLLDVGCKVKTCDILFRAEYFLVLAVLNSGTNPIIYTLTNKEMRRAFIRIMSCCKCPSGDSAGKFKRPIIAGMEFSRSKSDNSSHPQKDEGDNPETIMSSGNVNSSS
Conditions: not given
How it is done:
a) 35S-GTPγS Binding Assay GTP-γ-^35S binding was performed using […]15 μg protein of cell membranes suspended in 50 mM tris-HCl pH 7.5 containing 10 mM MgCl2, 100 mM NaCl and 10 μM GDP. The radioligand was 0.025 nM [^35S] GTP-γ-S and non specific binding determined in the presence of 10 μM non-radioactive GTP-γ-S. […] The maximal stimulation elicited by S1P was taken as a reference to define full or partial agonism and calculate the intrinsic activity (i.a.) of compounds.
What is called EC50 is the concentration at which the effect is half-maximal. The molecule `CC(C)Cc1ccc(-c2nc(-c3ccc(CN4CCC(C(=O)O)(c5ccccc5)CC4)cc3)no2)cc1Cl` [Example 23, 1-{4-[5-(3-Chloro-4-isobutylphenyl)-[1,2,4]-oxadiazol-3-yl]-benzyl}-4-phenylpiperidine-4-carboxylic acid tert-butyl amine salt] returned an EC50 of less than 10 nM.

The same test, now with this note: Table 1b; read-out: EDG1 EC50.
For the molecule `COCC1(C(=O)O)CCN(Cc2ccc(-c3noc(-c4ccc(CC(C)C)c(Cl)c4)n3)cc2)CC1` [Example 16, 1-{4-[5-(3-Chloro-4-isobutylphenyl)-[1,2,4]-oxadiazol-3-yl]-benzyl}-4-methoxymethylpiperidine-4-carboxylic acid tert-butyl amine salt], the EC50 is less than 1 nM.
`C=CCC1(C(=O)O)CCN(Cc2ccc(-c3noc(-c4ccc(-c5ccccc5)c(Cl)c4)n3)cc2)CC1` [Example 17, 4-Allyl-1-{4-[5-(2-chlorobiphenyl-4-yl)-[1,2,4]-oxadiazol-3-yl]-benzyl}piperidine-4-carboxylic acid tert-butyl amine salt]: the EC50 is less than 1 nM.
On the same count and under the same terms, with `CCCC1(C(=O)O)CCN(Cc2ccc(-c3noc(-c4ccc(-c5ccccc5)c(Cl)c4)n3)cc2)CC1` [Example 18, 1-{4-[5-(2-Chlorobiphenyl-4-yl)-[1,2,4]-oxadiazol-3-yl]-benzyl}-4-propylpiperidine-4-carboxylic acid tert-butyl amine salt] the figure was less than 1 nM; with `COCCOCC1(C(=O)O)CCN(Cc2ccc(-c3noc(-c4ccc(-c5ccccc5)c(Cl)c4)n3)cc2)CC1` [Example 19, 1-{4-[5-(2-Chlorobiphenyl-4-yl)-[1,2,4]-oxadiazol-3-yl]-benzyl}-4-(2-methoxyethoxymethyl)piperidine-4-carboxylic acid tert-butyl amine salt], less than 1 nM; with `O=C(O)C1(COCc2ccccc2)CCN(Cc2ccc(-c3noc(-c4ccc(-c5ccccc5)c(Cl)c4)n3)cc2)CC1` [Example 20, 4-Benzyloxymethyl-1-{4-[5-(2-chlorobiphenyl-4-yl)-[1,2,4]-oxadiazol-3-yl]-benzyl}piperidine-4-carboxylic acid tert-butyl amine salt], less than 1 nM.
The same measure, in the same setting: to `CC(C)Cc1ccc(-c2nc(-c3ccc(CN4CCC(COCc5ccccc5)(C(=O)O)CC4)cc3)no2)cc1Cl` [Example 21, 4-Benzyloxymethyl-1-[4-{5-(3-chloro-4-isobutylphenyl)-[1,2,4]-oxadiazol-3-yl]-benzyl}piperidine-4-carboxylic acid tert-butyl amine salt] belongs less than 1 nM; to `O=C(O)C1(CO)CCN(Cc2ccc(-c3noc(-c4ccc(-c5ccccc5)c(Cl)c4)n3)cc2)CC1` [Example 22, 1-{4-[5-(2-Chlorobiphenyl-4-yl)-[1,2,4]-oxadiazol-3-yl]-benzyl}-4-hydroxymethylpiperidine-4-carboxylic acid tert-butyl amine salt], less than 1 nM; to `CC(C)Cc1ccc(-c2nc(-c3ccc(CN4CCC(Cc5ccccc5)(C(=O)O)CC4)cc3)no2)cc1Cl` [Example 24, 4-Benzyl-1-[4-{5-(3-chloro-4-isobutylphenyl)-[1,2,4]-oxadiazol-3-yl]benzyl}-piperidine-4-carboxylic acid tert-butyl amine salt], less than 10 nM.
On the same count and under the same terms, with `CC(C)Cc1ccc(-c2nc(-c3ccc(CN4CCC(Cc5ccc(F)cc5)(C(=O)O)CC4)cc3)no2)cc1Cl` [Example 25, 1-{4-[5-(3-Chloro-4-isobutyl-phenyl)-[1,2,4]-oxadiazol-3-yl]-benzyl}-4-(4-fluoro-benzyl)-piperidine-4-carboxylic acid tert-butyl amine salt] the figure was less than 1 nM.
On to `CC(C)Cc1ccc(-c2nc(-c3ccc(CN4CCC(Cc5ccccc5F)(C(=O)O)CC4)cc3)no2)cc1Cl` [Example 26, 1-{4-[5-(3-Chloro-4-isobutyl-phenyl)-[1,2,4]-oxadiazol-3-yl]-benzyl}-4-(2-fluoro-benzyl)-piperidine-4-carboxylic acid tert-butyl amine salt], for which the EC50 was less than 1 nM.
Same read-out and setting: to `COc1ccc(CC2(C(=O)O)CCN(Cc3ccc(-c4noc(-c5ccc(CC(C)C)c(Cl)c5)n4)cc3)CC2)cc1` [Example 27, 1-{4-[5-(3-Chloro-4-isobutyl-phenyl)-[1,2,4]-oxadiazol-3-yl]-benzyl}-4-(4-methoxy-benzyl)-piperidine-4-carboxylic acid tert-butyl amine salt] belongs less than 1 nM; to `COc1ccccc1CC1(C(=O)O)CCN(Cc2ccc(-c3noc(-c4ccc(CC(C)C)c(Cl)c4)n3)cc2)CC1` [Example 28, 1-{4-[5-(3-Chloro-4-isobutyl-phenyl)-[1,2,4]-oxadiazol-3-yl]-benzyl}-4-(2-methoxy-benzyl)-piperidine-4-carboxylic acid tert-butyl amine salt], less than 1 nM.
The same measure, in the same setting: with `COCC1(C(=O)O)CCN(Cc2ccc(-c3noc(-c4ccc(-c5ccccc5)c(Cl)c4)n3)cc2)CC1` [Example 29, 1-{4-[5-(2-chlorobiphenyl-4-yl)-[1,2,4]-oxadiazol-3-yl]benzyl}-4-methoxymethylpiperidine-4-carboxylic acid tert-butyl amine salt] the figure was less than 1 nM.
On the same count and under the same terms, with `CCC1(C(=O)O)CCN(Cc2ccc(-c3noc(-c4ccc(-c5ccccc5)c(Cl)c4)n3)cc2)CC1` [Example 30, 1-{4-[5-(2-Chlorobiphenyl-4-yl)-[1,2,4]-oxadiazol-3-yl]-benzyl}-4-ethylpiperidine-4-carboxylic acid tert-butyl amine salt] the figure was less than 1 nM; with `CC(C)Cc1ccc(-c2nc(-c3ccc(CN4CCC(C)(C(=O)O)CC4)cc3)no2)cc1` [Example 31, 1-{4-[5-(4-Isobutyl-phenyl)-[1,2,4]-oxadiazol-3-yl]-benzyl}-4-methyl-piperidine-4-carboxylic acid tert-butyl amine salt], less than 10 nM; with `COCCCCC1(C(=O)O)CCN(Cc2ccc(-c3noc(-c4ccc(CC(C)C)c(Cl)c4)n3)cc2)CC1` [Example 32, 1-{4-[5-(3-Chloro-4-isobutylphenyl-[1,2,4]-oxadiazol-3-yl]benzyl}-4-(4-methoxybutyl)piperidine-4-carboxylic acid tert-butylamine salt], less than 1 nM.
`COCCOCC1(C(=O)O)CCN(Cc2ccc(-c3noc(-c4ccc(CC(C)C)c(Cl)c4)n3)cc2)CC1` [Example 33, 1-{4-[5-(3-chloro-4-isobutylphenyl)-[1,2,4]-oxadiazol-3-yl]benzyl}-4-(2-methoxyethoxymethyl)piperidine-4-carboxylic acid potassium salt]: the EC50 was less than 1 nM.
Consider `CC(C)Cc1ccc(-c2nc(-c3ccc(CN4CCC(CCOc5ccccc5)(C(=O)O)CC4)cc3)no2)cc1Cl` [Example 34, 1-{4-[5-(3-Chloro-4-isobutyl-phenyl)-[1,2,4]-oxadiazol-3-yl]-benzyl}-4-(2-phenoxy-ethyl)-piperidine-4-carboxylic acid tert-butyl amine salt], for which the EC50 was less than 1 nM.
In the case of `CC(C)Cc1ccc(-c2nc(-c3ccc(CN4CCC(Cc5c(F)cccc5F)(C(=O)O)CC4)cc3)no2)cc1Cl` [Example 35, 1-{4-[5-(3-Chloro-4-isobutyl-phenyl)-[1,2,4]-oxadiazol-3-yl]-benzyl}-4-(2,6-difluoro-benzyl)-piperidine-4-carboxylic acid tert-butyl amine salt], the EC50 is less than 1 nM.
On the same count and under the same terms, to `CC(C)Cc1ccc(-c2nc(-c3ccc(CN4CCC(CC(C)C)(C(=O)O)CC4)cc3)no2)cc1Cl` [Example 36, 1-{4-[5-(3-Chloro-4-isobutyl-phenyl)-[1,2,4]-oxadiazol-3-yl]-benzyl}-4-isobutyl-piperidine-4-carboxylic acid tert-butyl amine salt] belongs less than 10 nM; to `CC(C)Cc1ccc(-c2nc(-c3ccc(CN4CCC(C(=O)O)(C(C)C)CC4)cc3)no2)cc1Cl` [Example 37, 1-{4-[5-(3-Chloro-4-isobutyl-phenyl)-[1,2,4]-oxadiazol-3-yl]-benzyl}-4-isopropyl-piperidine-4-carboxylic acid tert-butyl amine salt], less than 1 nM; to `CC(C)Cc1ccc(-c2nc(-c3ccc(CN4CCC(Cc5cccc(C(F)(F)F)c5)(C(=O)O)CC4)cc3)no2)cc1Cl` [Example 38, 1-{4-[5-(3-Chloro-4-isobutyl-phenyl)-[1,2,4]-oxadiazol-3-yl]-benzyl}-4-(3-trifluoromethyl-benzyl)-piperidine-4-carboxylic acid tert-butyl amine salt], less than 10 nM.
With `CC(C)Cc1ccc(-c2nc(-c3ccc(CN4CCC(Cc5ccco5)(C(=O)O)CC4)cc3)no2)cc1Cl` [Example 39, 1-{4-[5-(3-Chloro-4-isobutyl-phenyl)-[1,2,4]-oxadiazol-3-yl]-benzyl}-4-furan-2-ylmethyl-piperidine-4-carboxylic acid tert-butyl amine salt], the EC50 was less than 10 nM.
`CC(C)Cc1ccc(-c2nc(-c3ccc(CN4CCC(Cc5ccccn5)(C(=O)O)CC4)cc3)no2)cc1Cl` [Example 40, 1-{4-[5-(3-Chloro-4-isobutyl-phenyl)-[1,2,4]-oxadiazol-3-yl]-benzyl}-4-pyridin-2-ylmethyl-piperidine-4-carboxylic acid tert-butyl amine salt]: the EC50 is less than 1 nM.
With `COc1ccccc1OCCC1(C(=O)O)CCN(Cc2ccc(-c3noc(-c4ccc(CC(C)C)c(Cl)c4)n3)cc2)CC1` [Example 41, 1-{4-[5-(3-Chloro-4-isobutyl-phenyl)-[1,2,4]-oxadiazol-3-yl]-benzyl}-4-[2-(2-methoxy-phenoxy)-ethyl]-piperidine-4-carboxylic acid tert-butyl amine salt], the EC50 was less than 1 nM.
On the same count and under the same terms, to `CC(C)Cc1ccc(-c2nc(-c3ccc(CN4CCC(Cc5cccnc5)(C(=O)O)CC4)cc3)no2)cc1Cl` [Example 42, 1-{4-[5-(3-Chloro-4-isobutyl-phenyl)-[1,2,4]-oxadiazol-3-yl]-benzyl}-4-pyridin-3-ylmethyl-piperidine-4-carboxylic acid tert-butyl amine salt] belongs less than 1 nM.

These data come from patent US9266867B2, “Piperidinyl monocarboxylic acids as S1P1 receptor agonists” (BIOPROJET, priority 2011, dated 2016).
